Patent US20250195604A1, “Compositions and Methods of Treatment of Certain Vasculitis Syndromes” (Soligenix, Inc., priority 2023, published 2025)
Entries after “also recorded” stand apart in the source; their conditions may differ. Like-named read-outs stand apart in the source and are kept apart here. No end group written: not given here.

What was measured:
NFKB = NFKB activation on dusquetide binding to p62; format: cell-based
[1] = system: mouse blood challenged with LPS; assay: LPS challenge of mouse blood exposed to dusquetide in vitro; format: cell-based; conditions: dusquetide exposure in vitro
Text: (§1) The innate immune system involves numerous cell types distributed throughout the body in both circulating and tissue-resident compartments. The interaction of all the cells defines the aggregate response. […] Nevertheless, cellular and molecular studies with individual cell types or sub-groups of cell types are informative but must be interpreted cautiously when used to predict the behavior of the system in vivo. […] By contrast, when dusquetide exposure of either mouse or human blood occurs in vitro, although the TNFα response to LPS challenge is unaffected, the MCP-1 response is reduced. The responses of mouse and human primary blood cells to dusquetide in this in vitro setting are quantitatively and qualitatively similar.

[2] = system: cytokine and chemokine levels; assay: Circulating cytokine and chemokine levels in NHPs; format: in vivo, NHP
MRSA [3] = conditions: mouse, in vivo
[4] = system: response to lipopolysaccharide; conditions: North 2016, Yu 2009; cited from earlier work
bacterial challenge = assay: Bacterial challenge in mice rendered leukopenic by cyclophosphamide; format: in vivo, mouse
[5] = system: mouse primary cell cultures; conditions: North 2016; cited from earlier work
[6] = system: whole blood stimulated with LPS (E. coli); assay: Phase 1 study: in vitro LPS stimulation of whole blood from SAD and MAD volunteers, cytokine and chemokine analytes; format: in vivo, human
Procedure: Solid lines indicate the mean response, dashed lines the respective 95% CI for the population.
In a Phase 1 study, patients received single ascending doses (0.15 to 8.0 mg/kg) and multiple ascending doses (daily 7× 0.5 to 6.5 mg/kg) of dusquetide as 4-minutes IV infusions. To determine the pharmacodynamic profile of dusquetide, cytokine and chemokine analytes were quantified after 4 h of in vitro stimulation of whole blood with LPS (E. coli) to determine dusquetide effects on dose, gender and any extended impact on PD.
The following panel of cytokine and chemokine analytes were quantified: IL-la; IL-1B; IL-6; IL-1ra; TNFα; Tumor Necrosis Factor-Receptor II (TNF RII); MCP-1; Macrophage Inflammatory Protein-1alpha (MIP-la; also known as CCL3); MIP-1B (also known as CCL4) and RANTES (also known as CCL5). The dusquetide-treated population (N=56) in the combined SAD and MAD data set was subdivided into “low dose” (N=26, 0.15-2.0 mg/kg) and “high dose” (N=30; 3.0-8.0 mg/kg) groups and these were compared to the combined placebo group (N=22).

[7] = system: severe oral mucositis (SOM); conditions: cited from earlier work; for overall infection rate: Kudrimoti 2016
[8] = system: nonhuman primate (NHP) primary cell cultures; conditions: North 2016; cited from earlier work
MRSA [9] = assay: MRSA infection in athymic nude mice; format: in vivo
[10] = system: severe oral mucositis (SOM); assay: Phase 2 study of oral mucositis in head and neck cancer patients receiving radiation and cisplatin (IDR-OM-01); format: in vivo, human
Procedure: The Phase 2 study was designed to examine the effects of dusquetide on ameliorating OM in patients with oral or oropharyngeal squamous cell carcinoma who were undergoing therapy with fractionated radiation (2.0-2.2 Gy per day for a total planned cumulative dose of 55-75 Gy) and chemotherapy with cisplatin given either as “low dose” (30-40 mg/m2 every week) or as “high dose” or “aggressive” cisplatin (80-100 mg/m2 given every 3 weeks). Dusquetide was evaluated in this dose ranging study at doses of 1.5, 3.0 (3 patients only) and 6.0 mg/kg.

[11] = system: human primary cell cultures; conditions: North 2016; cited from earlier work
[12] = system: mouse macrophage-like cell line; assay: Signalling after dusquetide exposure in mouse macrophage-like cell line; format: cell-based
[13] = system: severe oral mucositis (SOM); assay: Phase 3 study IDR-OM-02, oral mucositis in head and neck cancer patients receiving chemoradiation; format: in vivo, human; conditions: 1.5 mg/kg twice per week
Procedure: Subsequently a Phase 3 international study (Study IDR-OM-02) evaluated dusquetide in the treatment of […] in head and neck cancer patients receiving concomitant chemoradiation therapy (at least 55 Gy radiation therapy and 80 to 100 mg/m2 cisplatin received every third week). 266 patients were enrolled in the randomized, blinded and placebo-controlled study assessing treatment with 1.5 mg/kg dusquetide administered twice per week as a 4-minute infusion.

[14] = system: dextran sulphate sodium (DSS)-induced colitis; parameters: species or system male C57BL/6 mice; conditions: mouse, in vivo
[15] = system: mouse blood cells challenged with LPS; assay: Ex vivo LPS challenge of mouse blood cells after in vivo dusquetide
Text: as §1
Further studies have explored the ability of blood cells to respond to a pathogen (or pathogen-like) challenge in vitro after prior exposure to dusquetide in vivo—an “ex vivo” test system that provides information about the “responsiveness” of the innate defense system. The responsiveness of mouse and NHP innate defense systems have been characterized by measuring changes in cytokine and chemokine production following ex vivo challenge of blood cells with LPS. In general, no evidence of broad-spectrum activation was observed.

[16] = target: sequestosome-1, also known as p62 (Homo sapiens, UniProt Q13501); conditions: Yu 2009, Zhang 2022; cited from earlier work
Sequence of sequestosome-1, also known as p62 (Q13501 whole entry): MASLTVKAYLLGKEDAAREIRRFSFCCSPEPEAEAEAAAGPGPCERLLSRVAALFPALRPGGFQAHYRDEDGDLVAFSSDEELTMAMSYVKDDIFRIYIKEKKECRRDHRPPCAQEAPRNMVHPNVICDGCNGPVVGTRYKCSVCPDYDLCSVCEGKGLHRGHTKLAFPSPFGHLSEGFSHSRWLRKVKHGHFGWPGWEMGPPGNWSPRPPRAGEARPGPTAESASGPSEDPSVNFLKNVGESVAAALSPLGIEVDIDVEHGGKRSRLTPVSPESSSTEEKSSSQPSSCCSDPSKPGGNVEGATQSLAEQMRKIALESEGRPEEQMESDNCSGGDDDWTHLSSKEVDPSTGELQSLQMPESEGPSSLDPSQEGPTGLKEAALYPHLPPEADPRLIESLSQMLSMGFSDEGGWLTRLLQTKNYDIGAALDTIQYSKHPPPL

[17] = system: cytokine or chemokine levels; assay: Circulating cytokine and chemokine levels in normal mice; format: in vivo, mouse
[18] = low dose group (0.15-2.0 mg/kg)
[19] = low dose group (0.15-2.0 mg/kg), 1 h timepoint, vs placebo or high dose
[20] = 1.5 mg/kg, all patients, vs placebo
[21] = 1.5 mg/kg, every 3rd week cisplatin subpopulation
[22] = 1.5 mg/kg, every 3rd week cisplatin subpopulation, vs placebo
[23] = dusquetide in vivo before culture

RIVPA-NH2 [dusquetide, L-arginyl-L-isoleucyl-L-valyl-L-prolyl-L-alanine-amide]
activation of NFKB (NFKB): does not cause persistent activation | MCP-1 response to LPS challenge [1]: reduced | TNFα response to LPS challenge [1]: unaffected | MCP-1 levels ([2]; NHP, transient): modest changes | IL-1ra level ([2]; NHPs): marked but variable increase | levels of most cytokines and chemokines ([2]; NHPs): no substantial changes | swelling of abraded skin (MRSA [3]): reduced | ulceration of abraded skin (MRSA [3]): reduced | ILIra relative to IL-1B [4]: increasing | TNFRII relative to TNFα [4]: increasing | survival (bacterial challenge): survival benefit | expression patterns of chemokines such as MCP-1 [5]: modulated | measured cytokine and chemokine analytes ([6]; high dose group (3.0-8.0 mg/kg)): very similar to the placebo group | ratio IL-1ra/IL-1B [6, 18]: more distinct increased responses | ratio TNF RII/TNFα [6, 18]: more distinct increased responses | IL-1B after LPS stimulation of whole blood [6, 19]: slightly decreased | IL-1ra after LPS stimulation of whole blood [6, 19]: slightly increased | IL-1x after LPS stimulation of whole blood [6, 19]: slightly decreased | TNFα after LPS stimulation of whole blood [6, 19]: slightly decreased | formulation of oral ulcers ([7]; Kudrimoti 2016, Kudrimoti 2017): suppress | overall infection rate [7]: reduction | overall infection rate ([7]; listed as Dusquetide): decreasing | expression patterns of chemokines such as MCP-1 [8]: modulated | survival (MRSA [9]): survival benefit | median duration of SOM ([10]; 1.5 mg/kg, all patients): 9 days | reduction in median duration of SOM vs placebo ([10]; 1.5 mg/kg, all patients): 50% | reduction in median AUC for the WHO Grade-time calculation [10, 20]: 39% | reduction in the incidence of SOM [10, 20]: 7% | decrease in median duration of SOM vs placebo [10, 21]: 67% | median duration of SOM [10, 21]: 10 days | onset of disease [10, 21]: no impact | reduction in median AUC WHO Grade-time calculation [10, 22]: 51% | relative reduction in incidence of SOM [10, 22]: 18% | AUC (WHO Grade-time) ([10]; 1.5 mg/kg, weekly cisplatin): 10.5 | decrease in median duration of SOM vs placebo ([10]; 1.5 mg/kg, weekly cisplatin): 50% | median duration of SOM ([10]; 1.5 mg/kg, weekly cisplatin): 5 days | reduction in the AUC vs placebo ([10]; 1.5 mg/kg, weekly cisplatin): 55% | most efficacious dose ([10]; dose ranging 1.5, 3.0 and 6.0 mg/kg): 1.5 mg/kg | expression patterns of chemokines such as MCP-1 [11]: modulated | C/EBPB activation [12]: transient activation | p38 MAP kinase activation [12]: transient activation | response in duration of SOM ([13]; intent to treat (ITT) population): not | response in duration of SOM ([13]; per protocol (PP) population): statistically significant response | degree of response compared with 3 mg/kg prednisolone of 0.5 mg/kg budesonide [14]: similar | ex vivo MCP-1 response to LPS [15, 23]: increases | ex vivo TNFα response to LPS [15, 23]: decreases | responses of most analytes (58 cytokines and chemokines) to LPS [15, 23]: insignificant changes | ex vivo MCP-3 response to LPS ([15]; dusquetide in vivo vs saline): increases | binding to sequestosome-1 (p62) [16]: bind (but not inhibit); also recorded: binds | cytokine or chemokine levels [17]: no changes
